Experimental data: patent publication US6642214B1, “Detoxication of active pharmaceutical substances using cyclodextrine oligomers” (CeramOptec Industries, Inc., priority 1997, dated 2003)

Legend:
[1] = Affinity constants of β-cyclodextrin dimers/trimers for guest compounds (competition with TNS, fluorescence spectroscopy); type: binding
Protocol: Binding constants can be determined in competition with 6-(p-toluidino)-2-naphthalenesulfonic acid (TNS). The measurement is performed by fluorescence spectroscopy according to Ruebner et al. (loc. cit.).
Due to the cyclodextrins being bonded on the secondary side, the cavities of the cyclodextrins are oriented towards each other. The cyclodextrins are preferably β-cyclodextrins. The distance between the cyclodextrin units is determined by selecting the spacer. Depending on the size of the compound to be enclosed, the spacer is selected such that the distance between the at least two cavities approximately matches the distance between two hydro-phobic groups of the pharmaceutically active substance. Preferred spacings are within a range of about 0.6 to 2 nm, more preferably in a range of about 0.8, 1.0, 1.2, 1.4, 1.6 and 1.8 nm.
Such rigid spacers can also be achieved by the use of appropriately functionalized (hetero)aromatics. For example, rigid spacers prevent too high a conformational flexibility, such as twisting of the two cyclodextrins involved in the binding. […] By the use of rigid spacers, affinity constants within a range of greater than 10^6, preferably greater than 10^7 and more preferably greater than 10^8 l/mol are achieved. Thus, rigid spacers are those which achieve correspondingly high stability constants of the complexes together with cyclodextrins involved in the binding and appropriate guest compounds.

[2] = Complex binding constant in competitive reaction with toluidinonaphthalenesulfonic acid; conditions: guest paclitaxel; competition with toluidinonaphthalenesulfonic acid; read-out: complex binding constant Ktaxol
Protocol: 250 mg (100 μmol) of the CD dimer di-β-CD(2N-A4C5A4) (see FIG. 5) was dissolved in 1 l of aqueous buffer (pH 7.35, Hepes 25 mM) at 60° C. and kept at this temperature with vigorous stirring. 8.5 mg of paclitaxel (10 μmol) was dissolved in 1 ml of dimethyl sulfoxide and added dropwise to the mixture with vigorous stirring. The mixture was kept at 60° C. for 24 hours with stirring, followed by cooling and freeze-drying the mixture.

[3] = spacer length 15-16 Å, guests paclitaxel, docetaxel

di-β-CD(—NH—(C2H4)—SH-[6-(β,γ)-CD-6]-SH—(C2H4)—NH—)
Affinity constant, measured/estimated [1, 3]: 3 · 10^9 (trimer) l/mol

di-β-CD(—NH—(C2H4)—SH—[6-α-CD-6]—SH—(C2H4)—NH—)
Affinity constant, measured/estimated ([1]; spacer length 13-14 Å, guests vinblastin, vincristin): ˜10^8 l/mol

di-β-CD(—NH—(C3H6)—NHCO—(C3H6)—CONH—(C3H6)—NH—) [A3C5A3]
Affinity constant, measured/estimated ([1]; spacer length 11-12 Å, guests colchicine, colchemide): 10^6-10^7 l/mol

di-β-CD(—NH—(C4H8)—NHCO—(C3H6)—CONH—(C4H8)—NH—) [A4C5A4]
Affinity constant, measured/estimated [1, 3]: 10^7 (dimer)- l/mol
Kd [2]: 1400 nM

di-β-CD(—NH—(C8H16)—NH—) [octyl-α,ω-diamide]
Affinity constant, measured/estimated ([1]; spacer length 7-8 Å, guests 3^1,8^1-(di-t-butylphenoxy)-porphyrinoids, (tamoxifene), phenytoin): 10^6-10^7 l/mol
